Results reported in PMC11767297, “6-Bromoindole- and 6-Bromoindazole-Based Inhibitors of Bacterial Cystathionine γ-Lyase Containing 3-Aminothiophene-2-Carboxylate Moiety” (Molecules, 2025).
Where two headings read alike, the source gives them in different places.

Experiments:
bCSE [1] = settings: cited from earlier work
B. subtilis 168 strain [2] = assay: Kanamycin A-potentiating activity, growth curves; format: cell-based, Bacillus subtilis; settings: potentiator concentration in the presence of 0.25 µg Km (MICKm = 2 µg/mL); potentiator varied with an interval of 10 μM
Description: The potentiating properties and minimum inhibitory concentration (MIC) were assessed similarly to the testing with gentamicin, and additionally, the previously reported MNS1 was used for comparison (Figure 3). The MIC of kanamycin A for B. subtilis cells is 2 μg/mL. […] A lower cytotoxic effect on HEK273T culture (Table 1) allows us to conclude that MNS3 is the hit compound in the series (the experimental curves for CC50 estimation via the MTT test are given in the Supplementary Information File).
(§1) Gentamicin-potentiating activity testing of the compounds in B. subtilis. The growth curves of B. subtilis were obtained with a Bioscreen C automated growth curve analysis system (Oy Growth Curves Ab, Finland, Helsinki). The B. subtilis strain 168 was grown overnight in LB at 37 °C and diluted with fresh medium (1:100) containing the antibiotic and a test compound as specified in the text and figure captions. Aliquots (150 μL) of each mixture were added into plate wells in triplicate and incubated with continuous agitation at 37 °C. The optical density at 600 nm (OD600) was recorded automatically for 24 h. The results were averaged over three replicate experiments to plot the time dependences of bacterial growth.
Figure 3 Determination of the potentiating properties of compounds.

MTT test, cytotoxicity = format: cell-based; settings: human, HEK293T cells; MTT test, 72 h; concentration required to inhibit 50% cell culture growth; read-out: CC50 of compounds (HEK273T)
Description: (§2) HEK293T cells were grown in the DMEM:F12 (2:1) medium supplemented with 10% FBS (BioSera, Cholet, France), 2 mM L-glutamine, 100 U/mL penicillin and 100 μg/mL streptomycin in the presence of 5% CO2 at 37 °C. Cells were re-seeded every three days at a ratio of 1:3 or 1:5.
(§3) Stock solutions were diluted in DMSO (BioReagent of molecular biology grade, Sigma, St. Louis, MO, USA), and the final DMSO concentration was 1%. After 24 h (30–40% monolayer), the solutions of the studied compounds diluted at different concentrations were introduced to the culture medium. After the incubation at 37 °C in 5% CO2 for 72 h, a freshly prepared solution of thiazolyl blue tetrazolium bromide at a final concentration of 0.4 mg/mL was added to each well of the plate. Incubation was performed at +37 °C for 2 h. The medium containing unreacted MTT was removed via aspiration. The formed formazan dye was dissolved in 100 µL of isopropanol added to each well of the plate. The result of the analysis was evaluated using a Tecan Spark spectrophotometer (absorbance at 544 nm).

hCSE [3] = target: hCSE; set-up: method as in PMID 34112687, PMID 37110802, doi:10.1016/j.mencom.2024.02.030, PMID 39970094, PMID 38771206; settings: Figure 1; cited from earlier work
B. subtilis 168 strain [4] = test system: B. subtilis 168 strain; set-up: method as in PMID 39970094; settings: parent MNS1, in the presence of 0.1 µg Gm; previously known data for gentamicin potentiation; cited from earlier work
HEK273T = assay: MTT test, cytotoxicity; format: cell-based; settings: in words, conclusions
Description: as §2, §3

[5] = test system: hydrogen sulfide production by B. subtilis 168 cells; assay: Hydrogen sulfide generation, lead acetate paper strips; format: cell-based, Bacillus subtilis; settings: B. subtilis cell culture, Figure 2F
Description: The generation of hydrogen sulfide in B. subtilis cells was monitored according to the published protocol using lead acetate as a colorimetric sensor [29]. The inner surface of a cell culture flask was equipped above the level of the liquid with a standardized paper strip soaked with 2% aq. Pb(OAc)2. Overnight cultures were diluted with LB (1:50) and incubated at 37 °C under aeration conditions for 16–18 h. The test compounds (MNS1 and NL2) were used at 32 μM; LB without supplements was used as a negative control. Paper strips stained with the formed PbS precipitate were scanned using an AlphaImager gel imaging system (BioTechne, USA, Minneapolis, Minnesota). The results were normalized to the optical density of the culture.
(§4) Figure 2 Determination of the potentiating properties of compounds. Representative growth curves of B. subtilis 168 strain in the presence of 0.1 μg/mL gentamicin (Gm) and potentiators: MNS2 (A), MNS3 (B), MNS4 (C), MNS5 (D) and MNS6 (E). The cells were grown at 37 °C with aeration in a Bioscreen C automated growth assay system. The curves represent the mean values of three independent experiments with an error of <5%. Evaluation of hydrogen sulfide production by B. subtilis 168 cells in the presence of the potentiators studied (F): MNS2 (100 µM), MNS3 (90 µM), MNS4 (60 µM), MNS5 (60 µM) and MNS6 (100 µM). The filter paper strips soaked in 2% lead acetate solution show brown staining with PbS salt as a result of H2S evaporation by the bacterial suspension. The numbers indicate H2S production relative to wild-type cells. TEXT PRINTED IN THE PICTURE: (F) MNS2: 100% | (F) MNS3: >120% | (F) MNS4: >120% | (F) MNS5: <35% | (F) MNS6: <35% DOUBTS OF THE COPYIST ABOUT THIS PICTURE: Panel F: the picture prints no measure for the percentages, so they are given without one. / Panel F: the column "Control" (100%) is left out because it is not a substance.

B. subtilis 168 strain [6] = assay: Gentamicin-potentiating activity, growth curves (Bioscreen C); format: cell-based, Bacillus subtilis; settings: for MIC with Gm (B. subtilis): potentiator concentration in the presence of 0.1 µg Gm (0.1 MIC; MICGm = 1 µg/mL), potentiator varied with an interval of 10 μM
Description: We selected the B. subtilis 168 strain as the model micro-organism to determine the potentiating properties of the new compounds. The active center of the proposed target protein, cystathionine γ-lyase, has a conservative structure for a wide range of micro-organisms, including pathogens; thus, B. subtilis can be used as a less toxic model object containing the CGL enzyme for testing. The efficiency of CGL inhibitors was assessed by the standard minimum inhibitory concentration (MIC) assay. The potentiating properties were investigated according to the technique reported previously for NL2 [10]. The MIC of gentamicin for B. subtilis cells is 1 μg/mL, which is consistent with known CLSI breakpoints for the genus Bacillus. […] In addition, we tested the effect of the compounds on the generation of hydrogen sulfide by the B. subtilis cell culture (Figure 2F). […] The latter effect, however, may be attributed to the presence of the sulfur atom in the structure of these inhibitors assuming their possible hydrolysis if not bound to the enzyme in the cellular environment.
as §1
as §4, with “TEXT PRINTED IN THE PICTURE: (F) MNS2: 100% | (F) MNS3: >120% | (F) MNS4: >120% | (F) MNS5: <35% | (F) MNS6: <35% DOUBTS OF THE COPYIST ABOUT THIS PICTURE: Panel F: the picture prints no measure for the percentages, so they are given without one. / Panel F: the column "Control" (100%) is left out because it is not a substance.” left out

bCSE [7] = test system: bCSE; set-up: method as in PMID 34112687, PMID 37110802, doi:10.1016/j.mencom.2024.02.030, PMID 39970094, PMID 38771206; settings: Figure 1; cited from earlier work
hCSE [8] = test system: hCSE; set-up: method as in PMID 34112687, PMID 37110802, doi:10.1016/j.mencom.2024.02.030, PMID 39970094, PMID 38771206; settings: Figure 1; cited from earlier work; remark: listed apart in the source
B. subtilis cells = assay: MIC of the antibiotic alone, microdilution method (CLSI); format: cell-based, Bacillus subtilis
Description: Standardized MIC was determined using the microdilution method, as recommended by the Clinical and Laboratory Standards Institute (CLSI). […] The B. subtilis inoculate (100 μL) contained 1.0 × 10^6 CFU/mL. The minimum inhibitory concentration (MIC) was defined as the lowest antibiotic concentration that prevented turbidity in the inoculate following incubation at 37 °C for a duration of 24 h. Gentamycin was used at 0.1 μg/mL (10% of MIC) in further experiments.

Compound: O=C(O)c1ccc(Cn2ccc3ccc(Br)cc32)cc1 [3h]
- Kd (bCSE [1]; Figure 1, read-out: KD (bCSE)): 0.8 ± 0.3 µM

Compound: Nc1csc(Cn2ccc3ccc(Br)cc32)c1 [MNS1]
- MIC with Km (B. subtilis) (B. subtilis 168 strain [2]): 100 µM
- CC50 at 72 h (MTT test, cytotoxicity): 30 µM
- Kd (hCSE [3]): 11.6 ± 0.1 µM
- Kd (bCSE [1]; Figure 1, read-out: KD (bCSE)): 0.59 ± 0.04 µM
- Kd (bCSE [1]; introduction, read-out: binding constant with CGL): ~0.6 µM
- MIC with Gm (B. subtilis) (B. subtilis 168 strain [4]): ~50 µM

Compound: Nc1cc(Cn2ncc3ccc(Br)cc32)sc1C(=O)[O-].[K+] [MNS3, Potassium 3-Amino-5-((6-bromo-1H-indazol-1-yl)methyl)thiophene-2-carboxylate]
- MIC with Km (B. subtilis) (B. subtilis 168 strain [2]): 90 µM
- cytotoxicity in HEK273T (HEK273T): moderate cytotoxicity
- CC50 at 72 h (MTT test, cytotoxicity): 190 µM
- rate of hydrogen sulfide generation compared to the control group of cells [5]: enhanced
- MIC with Gm (B. subtilis) (B. subtilis 168 strain [6]): ~90 µM

Compound: Cc1oc(Cn2ncc3ccc(Br)cc32)cc1C(=O)O [MNS5, 5-((6-Bromo-1H-indazol-1-yl)methyl)-2-methylfuran-3-carboxylic Acid]
- MIC with Km (B. subtilis) (B. subtilis 168 strain [2]): 100 µM
- CC50 at 72 h (MTT test, cytotoxicity): 250 µM
- rate of hydrogen sulfide generation compared to the control group of cells [5]: significantly reduced
- MIC with Gm (B. subtilis) (B. subtilis 168 strain [6]): ~60 µM

Compound: O=C(O)CNC(=O)Cn1ccc2ccc(Br)cc21 [NL1]
- IC50 (bCSE [7]): 5.8 ± 2.7 µM
- IC50 (hCSE [8]): 29.2 ± 2 µM

Compound: Cc1oc(Cn2ccc3ccc(Br)cc32)cc1C(=O)O [NL2]
- Kd (bCSE [1]; Figure 1, marked "our data", read-out: KD (bCSE)): 1.1 ± 0.3 µM
- IC50 (bCSE [7]): 1.8 ± 0.5 µM
- IC50 (hCSE [8]): 25.3 ± 2.6 µM

Compound: Nc1cc(Cn2cc3ccc(Br)cc3n2)sc1C(=O)[O-].[K+] [MNS4, Potassium 3-Amino-5-((6-bromo-2H-indazol-2-yl)methyl)thiophene-2-carboxylate]
- MIC with Km (B. subtilis) (B. subtilis 168 strain [2]): 70 µM
- cytotoxicity in HEK273T (HEK273T): moderate cytotoxicity
- CC50 at 72 h (MTT test, cytotoxicity): 87 µM
- MIC with Gm (B. subtilis) (B. subtilis 168 strain [6]): ~60 µM

Compound: kanamycin A
- MIC of kanamycin A for B. subtilis cells (B. subtilis cells): 2 µg/mL

Compound: Cc1oc(Cn2cc3ccc(Br)cc3n2)cc1C(=O)O [MNS6, 5-((6-Bromo-2H-indazol-2-yl)methyl)-2-methylfuran-3-Carboxylic Acid]
- CC50 at 72 h (MTT test, cytotoxicity): 260 µM
- rate of hydrogen sulfide generation compared to the control group of cells [5]: significantly reduced

Compound: Nc1cc(Cn2ccc3ccc(Br)cc32)sc1C(=O)[O-].[K+] [MNS2, Potassium 3-Amino-5-((6-bromo-1H-indol-1-yl)methyl)thiophene-2-carboxylate]
- CC50 at 72 h (MTT test, cytotoxicity): 25 µM
- rate of hydrogen sulfide generation compared to the control group of cells [5]: enhanced
- inhibition of B. subtilis growth in combinations with gentamicin (B. subtilis 168 strain [6]; concentration range from 50 to 100 µM): failed to inhibit

Compound: O=C(O)c1cc(Cn2ccc3ccc(-c4cc5cccc(Cl)c5s4)cc32)n[nH]1 [NL3]
- IC50 (bCSE [7]): 0.7 ± 0.2 µM
- IC50 (hCSE [8]): 3.4 ± 0.8 µM

Compound: CNC(C)C1CCC(N)C(OC2C(N)CC(N)C(OC3OCC(C)(O)C(NC)C3O)C2O)O1 (stereo not shown) [gentamicin]
- MIC (B. subtilis cells; Bacillus subtilis, 37 °C, 24 h, read-out: MIC of gentamicin for B. subtilis cells): 1 µg/mL
